Measured values taken from publication PMC7757987, “Antitumor Activity and Mechanism Study of Riluzole and Its Derivatives” (Iranian Journal of Pharmaceutical Research : IJPR, 2020).
Where two headings read alike, the source gives them in different places.

How the values were obtained:
[1] = test system: HeLa (human cervical cancer cell line); assay: CCK-8 anti-proliferative assay, HeLa; assay type: cell-based; conditions: for IC50: Homo sapiens, HeLa, CCK-8, 48 h, read-out: Cytotoxicity (IC50) HeLa; for Selectivity index (SI) HeLa: IC50 LO2 / IC50 HeLa
Description: (§1) HeLa (human cervical cancer cell line), HepG2 (human liver cancer cell line), SP2/0 (mouse myeloma cell line), and LO2 (human normal liver cell line) were cultured in DMEM medium. Each medium was supplemented with 10% fetal bovine serum, 1% L-glutamine and 1% penicillin/streptomycin solution. The cell lines were kept in the incubator at 37 ℃ in a humidified atmosphere (90% RH) containing 5% CO2. […] The cell lines SP2/0 and MCF-7 were obtained from Laboratory Center of Shaanxi Province People’s Hospital.
(§2) 2×10^3 cells per well were planted into 96-well plates in 100 μL growth medium and incubated for 24 h. […] The mixture was incubated at 37 ℃ under a humidified 5% CO2 atmosphere. After incubation, 10 μL CCK-8 solution was added to each well and the cells were further incubated for 2 h at 37 ℃ according to the CCK-8 Technical Manual. Then, the OD value for each well was read at wavelength 450 nm to determine the cell viability on a microplate reader (Synergy HT, USA). […] The independent experiment was repeated at least three times. The percentage of growth inhibition was calculated as follows according to reference ([18]),
(§3) % of growth inhibition = [1 - absorbance of treated cells/absorbance of untreated cells] × 100%

[2] = test system: SP2/0 (mouse myeloma cell line); assay: CCK-8 anti-proliferative assay, SP2/0; assay type: cell-based; conditions: for Selectivity index (SI) SP2/0: IC50 LO2 / IC50 SP2/0; for IC50: Mus musculus, CCK-8, 48 h, read-out: Cytotoxicity (IC50) SP2/0
Description: as §1, §2, §3

[3] = test system: HepG2 (human liver cancer cell line); assay: CCK-8 anti-proliferative assay, HepG2; assay type: cell-based; conditions: for IC50: Homo sapiens, HepG2, CCK-8, 48 h, read-out: Cytotoxicity (IC50) HepG2; for Selectivity index (SI) HepG2: IC50 LO2 / IC50 HepG2
Description: as §1, §2, §3

[4] = CCK-8 cytotoxicity assay, normal LO2 cells; assay type: cell-based, human; conditions: human, LO2 normal liver cells; CCK-8, 48 h, normal liver cells; read-out: Cytotoxicity (IC50) L02
Description: as §1, §2, §3

[5] = test system: MCF-7 (human breast cancer cell line); assay: CCK-8 anti-proliferative assay, MCF-7; assay type: cell-based; conditions: for IC50: Homo sapiens, MCF7, CCK-8, 48 h; for Selectivity index (SI) MCF-7: IC50 LO2 / IC50 MCF-7
Description: as §1, §2, §3

[6] = test system: HeLa, HepG2, SP2/0 and MCF-7; assay: CCK-8 anti-proliferative assay, all examined cancer cell lines; assay type: cell-based; conditions: HepG2, SP2/0, MCF-7, CCK-8, 48 h
Description: as §1, with “MCF-7 (breast cancer cell line) was cultured in RPMI-1640 medium. HeLa” for “HeLa”
2×10^3 cells per well were planted into 96-well plates in 100 μL growth medium and incubated for 24 h. Then, the cells were exposed to each compound in growth medium (DMSO< 0.5%) at five different concentrations (1.23, 3.70, 11.11, 33.33, and 100 μmol/L) for 48 h. The mixture was incubated at 37 ℃ under a humidified 5% CO2 atmosphere. After incubation, 10 μL CCK-8 solution was added to each well and the cells were further incubated for 2 h at 37 ℃ according to the CCK-8 Technical Manual. Then, the OD value for each well was read at wavelength 450 nm to determine the cell viability on a microplate reader (Synergy HT, USA). […] The independent experiment was repeated at least three times. The percentage of growth inhibition was calculated as follows according to reference ([18]),
as §3

[7] = read-out: Cytotoxicity (IC50) MCF-7

Row | Compound | IC50 [1] [µM] | Selectivity index (SI) HeLa [1] | melting point [°C] | Selectivity index (SI) SP2/0 [2] | IC50 [2] [µM] | IC50 [3] [µM] | IC50 at 48 h [4] [µM] | IC50 [5, 7] [µM] | Selectivity index (SI) MCF-7 [5] | IC50 [6] [µM] | IC50 ([5]; read-out: IC50 in MCF-7 cells) [µM] | Selectivity index (SI) HepG2 [3]
1 | CCCCNc1nc2ccc(OC(F)(F)F)cc2s1 [Compound 4c] | 16.7 ± 0.94 | 1.53 | 76 to 78 | 0.43 | 59 ± 3.32 | > 100 | 25.6 ± 3.12 | 21.9 ± 0.97 | 1.17 |  |  | 
2 | FC(F)(F)Oc1ccc2nc(N3CCOCC3)sc2c1 [Compound 4h, (N-morpholine)-6-trifluoromethoxy-benzothiazole] | > 100 |  | 103 to 105 |  | 98.7 ± 3.28 | > 100 | > 100 | > 100 |  | > 100 |  | 
3 | FC(F)(F)Oc1ccc2nc(N3CCCCC3)sc2c1 [Compound 4g, 2-(N-piperidine)-6-trifluoromethoxy-benzothiazole] | > 100 |  | 74 to 75 | 4.12 | 32.6 ± 1.44 | > 100 | > 100 | 25.8 ± 1.21 | 5.20 |  |  | 
4 | CCN(CC)c1nc2ccc(OC(F)(F)F)cc2s1 [Compound 4d, (N-diaethylamine)-6-trifluoromethoxy-benzothiazole] | > 100 |  | 38 to 39 |  | 48.5 ± 3.41 | > 100 | > 100 | 46.6 ± 2.77 |  |  |  | 
5 | FC(F)(F)Oc1ccc2nc(N3CCCC3)sc2c1 [Compound 4f, (N-pyrrolidine)-6-trifluoromethoxy-benzothiazole] | > 100 |  | 129 to 130 |  | > 100 | > 100 | 65.2 ± 3.53 | > 100 |  | > 100 |  | 
6 | CC1CCN(c2nc3ccc(OC(F)(F)F)cc3s2)CC1 [Compound 4i, 2-(N-4-methyl-1-piperidinyl)-6-trifluoromethoxy-benzothiazole] | > 100 |  | 77 to 78 | 9.68 | 11.5 ± 0.85 | > 100 | > 100 | > 100 |  |  | 11.5 | 
7 | CNC(=O)c1cc(Oc2ccc(NC(=O)Nc3ccc(Cl)c(C(F)(F)F)c3)cc2)ccn1 [Sorafenib, reference compound] | 5.16 ± 0.62 |  |  |  | 4.25 ± 0.75 | 12 ± 2.12 | 11.9 ± 0.32 | 7.66 ± 0.73 |  |  |  | 
8 | FC(F)(F)Oc1ccc2nc(NC3CCCCC3)sc2c1 [Compound 4e] | 20.9 ± 0.98 | 1.62 | 96 to 97 | 1.91 | 17.7 ± 0.81 | 20.2 ± 0.93 | 33.8 ± 2.4 | 20.5 ± 1.09 | 1.65 |  |  | 1.67
9 | FC(F)(F)Oc1ccc2nc(Cl)sc2c1 [Compound 3, 2-chloro-6-trifluoromethoxy-benzothiazole] | > 100 |  | 38 to 39 |  | > 100 | > 100 | 100 ± 6.07 | > 100 |  | > 100 |  | 
10 | CCCNc1nc2ccc(OC(F)(F)F)cc2s1 [Compound 4b] | 30.1 ± 1.28 | 1.07 | 88 to 89 | 0.69 | 46.4 ± 3.62 | 18 ± 0.88 | 32.2 ± 3.03 | 12.9 ± 0.69 | 2.50 |  |  | 1.79
